# According to patent publication US9649394B2, “Compositions and methods for in vivo imaging” (The General Hospital Corporation, priority 2010, dated 2017):
# Like-named read-outs stand apart in the source and are kept apart here.
# Tests used:
# PARP1 = target: T1, PARP1 (Homo sapiens, UniProt P09874); test: Colorimetric PARP1 activity assay (Trevigen), IC50 determination; assay type: biochemical
# T1 construct: purchased Trevigen, Gaithersburg, Md
# Protocol: A commercially available colorimetric assay (Trevigen, Gaithersburg, Md.) was used to measure PARP activity in vitro in the presence of inhibitors. […] All experiments were carried out in triplicate. […] All reaction mixtures were adjusted to a final volume of 50 μL and a maximum final concentration 0.4% DMSO in assay buffer. The remainder of the assay was performed according to the manufacturer's instructions. PARP activity was measured by absorbance at 450 nm in each well using a Safire 2 microplate reader (Tecan Group, Männedorf, Switzerland). IC50 values were calculated using Prism software (GraphPad, La Jolla, Calif.).
# A commercially available colorimetric assay (Trevigen, Gaithersburg, Md.) was used to measure PARP activity in vitro in the presence of inhibitors. […] All experiments were carried out in triplicate. […] All reaction mixtures were adjusted to a final volume of 50 μL and a maximum final concentration 0.4% DMSO in assay buffer. The remainder of the assay was performed according to the manufacturer's instructions. PARP activity was measured by absorbance at 450 nm in each well using a Safire2 microplate reader. IC50 values were calculated using the Prism software package.
# [1] = tested on: HT-1080 cells expressing H2B-apple; test: Intravital imaging, window chamber mice with HT-1080 H2B-apple cells; assay type: in vivo
# Protocol: For the in vivo studies, mice with window chambers were implanted with 1 million HT-1080 cells expressing H2B-apple fluorescence protein. 75 nmol of AZD2281-BODIPYFL were dissolved in 75 μL of 1:1:DMAC:solutol and 75 μL of PBS and injected via tail vein. Images of the vessels were taken using a 20× water immersion objective on a laser scanning confocal microscope while the mouse was anesthetized with isoflurane.
# PARP1/PARP2 = test: Comparison of AZD2281-BODIPY FL uptake and PARP1/PARP2 expression in cell lines; assay type: cell-based; conditions: fixed cells, 20 minutes incubation
# Protocol: RAW 264.7, Panc-1, MIA Paca2, A2780, OVCAR429, UCI 101, UCI 107, SKOV-3, OVCAR-3, and OV-90 cells (200 μL, 35,000 cells/mL) were each seeded in their respective growth medium on 96-well plates and allowed to attach for 48 hours. […] Cells were then fixed with paraformaldehyde (4% in PBS) and washed with ice cold PBS/0.1% Triton X-100/0.5% bovine serum albumin (3×200 μL, 3rd wash left for 30 min). Cells were incubated with anti-PARP-1/2 Rab (1:50; SCBT, Santa Cruz, Calif.) at 4° C. overnight. Cells were washed with PBS/0.1% Triton X-100 (3×200 μL) before stained with secondary IgG-Cy5 Gab (1:100; Millipore, Billerica, Mass.) for 3 h at 4° C. Cells were then washed with PBS (1×, 200 μL), stained with Hoechst (Invitrogen, Carlsbad, Calif.) and blue whole cell stain (Thermo Scientific, Waltham, Mass.) for 30 minutes at room temperature, and washed with PBS (3×, 200 μL) before imaging and quantification of the respective fluorescence signals.
# HT1080 cells = test: Life cell imaging, in vitro uptake and clearance kinetics; assay type: cell-based
# Protocol: For in vitro kinetic studies, HT1080 cells were labeled with a 1 μM concentration of AZD2281 fluorophore conjugate in cell culture medium and imaged on an inverted Deltavision epifluorescence microscope using a 37° C. heated stage and 5% CO2 atmosphere for various times. After subtracting the background fluorescence, the data were fitted to an exponential association curve. […] Cells were washed twice in cell culture media and imaged continuously (BODIPYFL conjugate) or after various time points (BODIPY578 and BODIPY650). The loss in fluorescence was fitted to a biexponential decay curve.
# [2] = tested on: SKOV-3, MIA Paca2, A2780, Panc-1 tumors; test: Tumor versus muscle fluorescence uptake in Nu/Nu mice, excised tissues; assay type: in vivo; conditions: 75 nmol via tail vein, 45 minutes
# Protocol: For ^18F-AZD2281 standardized uptake values, five Nu/Nu mice each received four subcutaneous injections containing SKOV-3, MIA Paca2, A2780, or Panc-1 cells in the flanks and shoulders (2.5×10^6 cells in 100 μL 70:30 PBS/BD matrigel per injection) (BD Biosciences, Bedford, Mass.). Tumors were allowed to grow for two weeks before imaging. 75 nmol of AZD2281-BODIPYFL were dissolved in 75 μL of 1:1:DMAC:solutol and 75 μL of PBS and injected via tail vein. The agent was allowed to circulate and clear for 45 minutes, before the mice were sacrificed, tumors and muscle tissue excised and the relative fluorescence uptake of tissues quantified against mice which were injected with just 1:1:DMAC:solutol.
# MDA-MB-436 cells = test: AZD2281-TCO / Texas Red-Tz bioorthogonal reaction and imaging in live MDA-MB-436 cells; assay type: cell-based; conditions: sequential AZD2281-TCO (7)/Texas Red-Tz (8)
# Protocol: (§1) Cells were then incubated with Texas Red-Tz (8) (25 μL, 20 μM) for 20 minutes (37° C.) before the medium was removed and cells were washed (1×, medium, 500 μL). […] Cells were washed with PBS (3×500 μL), fixed with paraformaldehyde (4% in PBS) and washed with PBS (3×500 μL, time between each wash=5 minutes). PBS was removed and cells mounted using Prolong Gold (Invitrogen, Carlsbad, Calif.) before imaging.
# as §1, with “min). […]” for “minutes). PBS was removed and cells mounted using Prolong Gold (Invitrogen, Carlsbad, Calif.) before imaging.”
# Cells were observed on a Nikon 80i (Nikon, Tokyo JP) microscope equipped with an ImagEM camera (Hammamatsu Photonics, Tokyo JP). […] For each image, both cell structures and nuclei structures have been obtained using the appropriate fluorescence filters and appropriate excitation signal levels to avoid collecting auto-fluorescence. […] Within each image and for each cell, the fluorescence signal for the total cell and the signal in the nuclear area was calculated using the corresponding mask as a spatial filter. […] The ratio of the fluorescent signal in the cytosol region over the signal in the nuclear region was then calculated. […]
# MDA-MB-436 tumors = test: PET-CT imaging of MDA-MB-436 tumor-bearing mice, with and without AZD2281; assay type: in vivo; conditions: 1 mg AZD2281 BID, then re-injection of probe
# Protocol: Non-tumor bearing Nu/Nu mice were injected with (6^18F) and used for organ distribution immediately after injection over a time period of 2 hours. Tumor-bearing mice received s.c. injections with 5×10^6 MDA-MB-436 cells (American Type Culture Collection) in Matrigel (BD Biosciences) into each flank and underwent imaging 7 days later (injection of (6^18F) and immediate imaging over a time period of 2 hours). All mice were anesthetized (isoflurane 1.5%; O2 2 L/min) during imaging with a gas delivery system integrated into a multimodal imaging cartridge. All animal experiments were approved by Massachusetts General Hospital's Institutional Review Committee.
# Images were acquired on the Siemens Inveon PET-CT. Each PET acquisition was 120 minutes in duration. PET was reconstructed from 600 million coincidental 511 keV photon counts on a series of LSO (lutetium oxyorthosilicate) scintillating crystals. Counts were rebinned in 3D by registering photons spanning no more than 3 consecutive rings and reconstructed into sinograms using a high resolution Fourier Rebin algorithm. Sinograms also yielded a 3D mapping of positron signal using a 2D filtered back-projection algorithm and a Ramp filter with a Nyquist cut-off of 0.5. […] Data are expressed as standard uptake values (SUV), which normalizes activity measurements to body weight and injected activity. […]
# A2780 tumors = test: Non-invasive monitoring of treatment response in tumor-bearing Nu/Nu mice (SUV); assay type: in vivo; conditions: treatment with Olaparib
# Protocol: ^18F-AZD2281 was synthesized as described herein. Nu/Nu mice bearing either A2780 tumors (treatment response) or A2780, Paca2, Panc1 and SKOV3 (differential uptake) were injected with the hot probe (500-750 μCi) and imaged ˜1.5 hours thereafter. Treatment consisted of injection of 0.5-1.0 mg AZD2281 (Olaparib) 18 hours before imaging (ip, interperitoneal) or ˜1.5-3.5 hours before imaging (iv, intravenous). Uptake was determined non-invasively by drawing SUVs (Standard Uptake Values).
# [3] = 1 μM, HT1080, exponential association fit
# [4] = labeled at 1 μM for 1 hour, washed, biexponential decay fit
# T1 sequence (P09874 whole entry): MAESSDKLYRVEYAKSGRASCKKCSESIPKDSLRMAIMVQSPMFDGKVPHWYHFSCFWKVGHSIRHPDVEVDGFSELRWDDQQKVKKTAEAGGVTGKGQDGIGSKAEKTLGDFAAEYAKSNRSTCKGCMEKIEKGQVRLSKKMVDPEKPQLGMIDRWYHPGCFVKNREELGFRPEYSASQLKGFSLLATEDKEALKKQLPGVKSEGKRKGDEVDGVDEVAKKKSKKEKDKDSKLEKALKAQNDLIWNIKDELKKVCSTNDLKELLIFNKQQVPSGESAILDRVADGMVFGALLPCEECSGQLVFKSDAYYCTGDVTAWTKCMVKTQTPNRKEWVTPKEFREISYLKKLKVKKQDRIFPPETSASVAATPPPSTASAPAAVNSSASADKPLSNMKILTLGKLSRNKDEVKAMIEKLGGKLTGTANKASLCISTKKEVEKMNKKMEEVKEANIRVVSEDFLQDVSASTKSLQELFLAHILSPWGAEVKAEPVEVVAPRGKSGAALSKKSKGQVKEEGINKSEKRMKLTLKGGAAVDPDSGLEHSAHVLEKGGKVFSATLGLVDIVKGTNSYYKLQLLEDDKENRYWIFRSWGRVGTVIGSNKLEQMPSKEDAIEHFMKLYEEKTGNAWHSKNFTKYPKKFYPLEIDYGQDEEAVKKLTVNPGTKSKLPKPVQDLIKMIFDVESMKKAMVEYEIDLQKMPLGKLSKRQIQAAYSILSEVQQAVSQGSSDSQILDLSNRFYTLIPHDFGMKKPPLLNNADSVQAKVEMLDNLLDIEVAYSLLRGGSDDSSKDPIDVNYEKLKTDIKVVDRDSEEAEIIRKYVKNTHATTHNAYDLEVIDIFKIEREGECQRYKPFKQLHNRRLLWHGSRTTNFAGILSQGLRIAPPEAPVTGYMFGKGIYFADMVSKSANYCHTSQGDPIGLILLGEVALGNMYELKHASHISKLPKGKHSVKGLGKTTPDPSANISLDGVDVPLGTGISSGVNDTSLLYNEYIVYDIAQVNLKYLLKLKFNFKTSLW
smiles,measurement,setting,value
O=C(CF)N1CCN(C(=O)c2cc(Cc3n[nH]c(=O)c4ccccc34)ccc2F)CC1 [17^19F],IC50,PARP1,5.2 ± 1.1 nM
Cc1cc(C)n2c1C=C1C=CC(CCC(=O)N3CCN(C(=O)c4cc(Cc5n[nH]c(=O)c6ccccc56)ccc4F)CC3)=[N+]1[B-]2(F)F [AZD2281-BODIPY FL],"time after which non-specific uptake cleared, revealing nuclear uptake",[1]; 75 nmol via tail vein,1 h
same,distribution in tumor after iv injection,"[1]; first in vascular system, then tumor cells",concentrates in each and every tumor cell of the tumor
same,cellular localization,PARP1/PARP2,localizes with the nucleus
same,"Uptake, Nucleus",HT1080 cells; [3],Nucleus = 1.1 min
same,"Uptake, Perinuclear",HT1080 cells; [3],Perinuclear = 1.2 min
same,"Clearance (weighted), Nucleus",HT1080 cells; [4],Nucleus = slow
same,"Clearance (weighted), Perinuclear",HT1080 cells; [4],Perinuclear = 1.7 min
same,uptake in muscle compared to tumor tissues,[2],very little of the compound gets taken up by muscle cells compared to the tumor tissues
O=C(CCCC(=O)N1CCN(C(=O)c2cc(Cc3n[nH]c(=O)c4ccccc34)ccc2F)CC1)NCCNC(=O)C1C[C@@H]2C=C[C@H]1C2 (stereo partly shown) [AZD2281-NOB],IC50,"PARP1; Example 1, 0.5 units PARP HSA, 10 minutes, read-out: IC50",10.1 ± 1.3 nM
O=C(CCCC(=O)N1CCN(C(=O)c2cc(Cc3n[nH]c(=O)c4ccccc34)ccc2F)CC1)NCCNC(=O)OC1CC/C=C/CCC1 (stereo not shown) [AZD2281-TCO],spatial correlation of Texas Red staining with anti-PARP1 Mab staining,MDA-MB-436 cells,excellent spatial correlation
O=C(c1cc(Cc2n[nH]c(=O)c3ccccc23)ccc1F)N1CCN(C(=O)C2CC2)CC1 [AZD2281],effect on uptake of 18F-AZD2281 into tumors,MDA-MB-436 tumors,inhibition of the probe s uptake into the tumors
OC[C@H]1O[C@@H](O)[C@H]([18F])[C@@H](O)[C@@H]1O [FDG],ability to distinguish between treated and untreated tumors (tumor/muscle signal intensity),A2780 tumors,not able
